# Source: patent US20100197797A1 (priority 2009, published 2010)
# Where two headings read alike, the source gives them in different places.
# Legend:
# Human pharmacokinetics = conditions: in vivo
# Experimental: The pharmacokinetic parameters described herein include area under the plasma concentration-time curve (AUC0-t and AUC0-∞), maximum plasma concentration (Cmax), time of maximum plasma concentration (Tmax) and terminal elimination half-life (T1/2). The time of maximum concentration, Tmax, is determined as the time corresponding to Cmax. Area under the plasma concentration-time curve up to the time corresponding to the last measurable concentration (AUC0-t) is calculated by numerical integration using the linear trapezoidal rule as follows: […]
# [1] = Urinary excretion after oral 14C-milnacipran hydrochloride; assay type: in vivo, human
# Excerpt: Milnacipran and its metabolites are eliminated primarily by renal excretion. […] The l-milnacipran carbamoyl-O-glucuronide was the major metabolite excreted in urine and accounted for approximately 17% of the dose; approximately 2% of the dose was excreted in urine as d-milnacipran carbamoyl-O-glucuronide.
# fibromyalgia patients = assay: Placebo-controlled trials in fibromyalgia patients (safety); assay type: in vivo, human; conditions: human, in vivo
# Excerpt: The stated frequencies of adverse reactions represent the proportion of individuals who experienced, at least once, a treatment-emergent adverse reaction of the type listed. A reaction was considered treatment emergent if it occurred for the first time or worsened while receiving therapy following baseline evaluation.
# patients = assay: Spontaneous / postmarketing reports; assay type: in vivo, human; conditions: in vivo
# Excerpt: However, because these adverse reactions were reported voluntarily from a population of uncertain size, it is not always possible to reliably estimate their frequency or establish a causal relationship to drug exposure.
# [2] = set-up: species or system human; conditions: in vivo, po
# Excerpt: AUC0-∞ and T½ were similar in healthy subjects and subjects with mild and moderate hepatic impairment. […] Caution should be exercised in patients with severe hepatic impairment.
# [3] = human, in vivo
# Excerpt: Dosage adjustment based on gender is not necessary.
# [4] = Drug interaction studies in healthy adult subjects; assay type: in vivo, human; conditions: human, in vivo
# Experimental: The drug interaction studies described below were conducted in healthy adult subjects.
# [5] = target: neuronal serotonin reuptake (Homo sapiens, UniProt P31645); assay: Serotonin uptake inhibition in vitro; assay type: biochemical; conditions: preclinical studies
# Chain of neuronal serotonin reuptake (P31645 whole entry): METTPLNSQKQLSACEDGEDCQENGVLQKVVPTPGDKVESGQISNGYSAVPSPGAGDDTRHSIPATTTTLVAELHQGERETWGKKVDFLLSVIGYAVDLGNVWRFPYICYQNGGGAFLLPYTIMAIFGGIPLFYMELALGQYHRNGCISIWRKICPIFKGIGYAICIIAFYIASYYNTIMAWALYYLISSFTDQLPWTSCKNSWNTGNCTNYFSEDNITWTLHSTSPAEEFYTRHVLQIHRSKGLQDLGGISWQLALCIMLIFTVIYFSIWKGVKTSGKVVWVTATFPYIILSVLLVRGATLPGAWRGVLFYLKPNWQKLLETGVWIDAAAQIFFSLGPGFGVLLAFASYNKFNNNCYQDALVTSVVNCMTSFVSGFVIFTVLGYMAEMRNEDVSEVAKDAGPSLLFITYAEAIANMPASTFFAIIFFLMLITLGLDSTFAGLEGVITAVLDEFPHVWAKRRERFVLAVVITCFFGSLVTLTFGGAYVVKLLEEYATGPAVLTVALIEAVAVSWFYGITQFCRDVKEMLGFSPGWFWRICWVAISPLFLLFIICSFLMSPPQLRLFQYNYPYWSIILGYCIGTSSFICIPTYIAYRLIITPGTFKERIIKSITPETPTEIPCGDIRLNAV
# uptake of dopamine [6] = target: T1, uptake of dopamine (Homo sapiens, UniProt Q01959); assay: Dopamine uptake; assay type: biochemical; conditions: preclinical studies
# T1 sequence (Q01959 whole entry): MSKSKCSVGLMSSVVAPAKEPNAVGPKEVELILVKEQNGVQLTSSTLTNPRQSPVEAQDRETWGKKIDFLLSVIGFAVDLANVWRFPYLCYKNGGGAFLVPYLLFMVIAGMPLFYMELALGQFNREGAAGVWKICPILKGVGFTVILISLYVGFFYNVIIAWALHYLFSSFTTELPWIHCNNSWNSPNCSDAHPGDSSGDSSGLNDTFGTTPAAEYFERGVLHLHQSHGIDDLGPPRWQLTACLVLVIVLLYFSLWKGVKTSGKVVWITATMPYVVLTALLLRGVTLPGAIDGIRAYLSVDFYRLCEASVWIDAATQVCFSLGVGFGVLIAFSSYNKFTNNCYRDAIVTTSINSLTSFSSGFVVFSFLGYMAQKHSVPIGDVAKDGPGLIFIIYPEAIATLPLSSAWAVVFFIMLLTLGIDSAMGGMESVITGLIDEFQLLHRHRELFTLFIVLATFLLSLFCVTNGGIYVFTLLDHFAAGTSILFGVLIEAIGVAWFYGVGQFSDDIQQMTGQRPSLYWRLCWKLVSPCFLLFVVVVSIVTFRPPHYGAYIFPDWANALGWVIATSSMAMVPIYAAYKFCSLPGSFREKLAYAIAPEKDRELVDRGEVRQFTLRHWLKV
# [7] = system: serotonergic (5-HT1-7) receptors; assay: Receptor affinity in vitro; assay type: binding
# α-adrenergic receptors = assay: Receptor affinity in vitro; assay type: binding
# β-adrenergic receptors = assay: Receptor affinity in vitro; assay type: binding
# [8] = system: muscarinic (M1-5) receptors; assay: Receptor affinity in vitro; assay type: binding
# [9] = system: histamine (H1-4) receptors; assay: Receptor affinity in vitro; assay type: binding
# [10] = system: dopamine (D1-5) receptors; assay: Receptor affinity in vitro; assay type: binding
# opiate receptors = assay: Receptor affinity in vitro; assay type: binding
# benzodiazepine receptors = assay: Receptor affinity in vitro; assay type: binding
# [11] = system: γ-aminobutyric acid (GABA) receptors; assay: Receptor affinity in vitro; assay type: binding
# Ca^++ channels = assay: Ion channel affinity; assay type: binding
# K^+ channels = assay: Ion channel affinity; assay type: binding
# Na^+ channels = assay: Ion channel affinity; assay type: binding
# Cl^− channels = assay: Ion channel affinity; assay type: binding
# [12] = target: human monoamine oxidase MAO-A (Homo sapiens, UniProt P21397); assay: Enzyme inhibition; assay type: biochemical
# Chain of human monoamine oxidase MAO-A (P21397 whole entry): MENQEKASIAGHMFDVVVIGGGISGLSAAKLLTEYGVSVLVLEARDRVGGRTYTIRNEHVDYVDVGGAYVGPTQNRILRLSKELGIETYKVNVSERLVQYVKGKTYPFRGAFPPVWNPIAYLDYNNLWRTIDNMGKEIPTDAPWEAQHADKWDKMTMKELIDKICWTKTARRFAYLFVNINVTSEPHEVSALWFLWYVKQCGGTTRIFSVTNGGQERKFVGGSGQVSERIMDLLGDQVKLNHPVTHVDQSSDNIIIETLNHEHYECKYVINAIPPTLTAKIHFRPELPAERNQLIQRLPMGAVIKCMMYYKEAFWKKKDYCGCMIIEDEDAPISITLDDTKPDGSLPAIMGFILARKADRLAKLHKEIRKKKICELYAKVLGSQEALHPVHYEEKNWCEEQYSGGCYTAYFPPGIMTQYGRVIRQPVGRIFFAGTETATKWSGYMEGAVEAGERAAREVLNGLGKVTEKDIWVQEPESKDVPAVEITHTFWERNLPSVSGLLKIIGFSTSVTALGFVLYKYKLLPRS
# [13] = target: human monoamine oxidase MAO-B (Homo sapiens, UniProt P27338); assay: Enzyme inhibition; assay type: biochemical
# Chain of human monoamine oxidase MAO-B (P27338 whole entry): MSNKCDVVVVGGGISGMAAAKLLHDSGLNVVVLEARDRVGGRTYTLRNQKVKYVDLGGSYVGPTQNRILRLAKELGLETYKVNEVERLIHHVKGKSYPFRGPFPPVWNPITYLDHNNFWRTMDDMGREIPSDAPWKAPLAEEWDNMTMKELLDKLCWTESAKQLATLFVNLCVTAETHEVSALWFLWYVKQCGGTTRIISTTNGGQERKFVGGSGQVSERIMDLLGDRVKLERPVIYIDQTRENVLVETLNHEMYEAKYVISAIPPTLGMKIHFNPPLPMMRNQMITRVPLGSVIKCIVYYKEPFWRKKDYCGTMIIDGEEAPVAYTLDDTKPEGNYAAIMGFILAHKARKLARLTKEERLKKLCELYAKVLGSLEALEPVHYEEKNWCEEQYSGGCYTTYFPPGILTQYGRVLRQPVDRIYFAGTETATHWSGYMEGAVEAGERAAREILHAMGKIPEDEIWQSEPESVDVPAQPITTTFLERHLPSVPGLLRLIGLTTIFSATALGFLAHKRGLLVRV
# acetylcholinesterase = acetylcholinesterase (Homo sapiens, UniProt P22303); assay: Enzyme inhibition; assay type: biochemical
# Chain of acetylcholinesterase (P22303 32-614, species assumed): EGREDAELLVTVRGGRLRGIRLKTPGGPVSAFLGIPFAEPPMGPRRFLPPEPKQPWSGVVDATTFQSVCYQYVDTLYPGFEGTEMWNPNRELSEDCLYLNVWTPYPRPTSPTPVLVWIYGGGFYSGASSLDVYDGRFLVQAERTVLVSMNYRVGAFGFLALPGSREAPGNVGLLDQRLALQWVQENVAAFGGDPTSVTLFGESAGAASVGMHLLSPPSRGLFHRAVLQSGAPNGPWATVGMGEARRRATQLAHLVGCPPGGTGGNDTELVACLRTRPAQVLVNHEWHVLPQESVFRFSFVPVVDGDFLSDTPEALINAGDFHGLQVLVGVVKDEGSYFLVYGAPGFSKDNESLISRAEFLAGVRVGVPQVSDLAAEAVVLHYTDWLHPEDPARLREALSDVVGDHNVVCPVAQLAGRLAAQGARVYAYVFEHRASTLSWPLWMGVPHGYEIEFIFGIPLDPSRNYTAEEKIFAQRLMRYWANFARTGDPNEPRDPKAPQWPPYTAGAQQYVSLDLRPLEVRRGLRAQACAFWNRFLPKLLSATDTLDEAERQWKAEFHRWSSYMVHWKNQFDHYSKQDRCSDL
# rats [14] = assay: Reproductive toxicity in rats (dead fetuses in utero); assay type: in vivo, rat; conditions: 5 mg/kg/day (0.25 times the MRHD on a mg/m^2 basis)
# mice = assay: Embryotoxicity/teratogenicity in mice, period of organogenesis; assay type: in vivo, mouse; conditions: up to 125 mg/kg/day (3 times the MRHD)
# rabbits = assay: Embryotoxicity/teratogenicity in rabbits, period of organogenesis; assay type: in vivo, rabbit; conditions: up to 60 mg/kg/day (6 times the MRHD)
# rats [15] = assay: Oral administration to rats during late gestation; assay type: in vivo
# Experimental: The no-effect dose for maternal and offspring toxicity was 2.5 mg/kg/day (approximately 0.1 times the MRHD on a mg/m^2 basis).
# rats [16] = conditions: rat, in vivo, 50 mg/kg/day
# [17] = system: bacterial reverse mutation; assay: In vitro bacterial reverse mutation assay (Ames test); assay type: cell-based
# [18] = system: L5178Y TK+/− mouse lymphoma; assay type: cell-based
# human lymphocytes = assay type: cell-based
# mouse = conditions: in vivo
# primate = conditions: in vivo
# Excerpt: (§1) The clinical significance of the finding is not known.
# rats [19] = conditions: rat, in vivo, 15 mg/kg
# Excerpt: as §1
# rat = conditions: in vivo
# [20] = in vivo
# Excerpt: Milnacipran is not a controlled substance.
# These withdrawal symptoms can be severe. Thus, in certain embodiments, milnacipran hydrochloride should be tapered and not abruptly discontinued after extended use.
# uptake of dopamine [21] = target: T1, uptake of dopamine; conditions: cited from earlier work
# [22] = oral 14C-milnacipran hydrochloride
smiles,measurement,setting,value
"CCN(CC)C(=O)[C@@]1(c2ccccc2)C[C@H]1CN.Cl [(1S,2R) enantiomer, (1S,2R)-2-aminomethyl-1-phenyl-N,N-diethylcyclopropanecarboxamide hydrochloride]",half-life,Human pharmacokinetics; human,8 to 10 h
"CCN(CC)C(=O)[C@]1(c2ccccc2)C[C@@H]1CN.Cl [(1R,2S) enantiomer, (1R,2S)-2-aminomethyl-1-phenyl-N,N-diethylcyclopropanecarboxamide hydrochloride]",half-life,Human pharmacokinetics; human,4 to 6 h
CCNC(=O)[C@]1(c2ccccc2)C[C@@H]1CN [N-desethyl milnacipran],dose excreted in urine as this species,[1]; [22],Approximately 8%
CCN(CC)C(=O)[C@@]1(c2ccccc2)C[C@H]1CNC(=O)O[C@@H]1O[C@H](C(=O)O)[C@@H](O)[C@H](O)[C@H]1O [l-milnacipran carbamoyl-O-glucuronide],dose excreted in urine as this species,[1]; [22],approximately 17%
CCN(CC)C(=O)[C@]1(c2ccccc2)C[C@@H]1CNC(=O)O[C@@H]1O[C@H](C(=O)O)[C@@H](O)[C@H](O)[C@H]1O [d-milnacipran carbamoyl-O-glucuronide],dose excreted in urine as this species,[1]; [22],approximately 2%
CCN(CC)C(=O)[C@]1(c2ccccc2)C[C@@H]1CN [d-milnacipran],dose excreted in urine as this species,[1]; [22],31%
CCN(CC)C(=O)C1(c2ccccc2)CC1CN (stereo not shown) [milnacipran],withdrawal due to constipation,fibromyalgia patients,1%
same,withdrawal due to dizziness,fibromyalgia patients,1%
same,withdrawal due to headache,fibromyalgia patients,2%
same,withdrawal due to heart rate increased,fibromyalgia patients,1%
same,withdrawal due to hyperhidrosis,fibromyalgia patients,1%
same,withdrawal due to nausea,fibromyalgia patients,6%
same,withdrawal due to palpitations,fibromyalgia patients,3%
same,withdrawal due to vomiting,fibromyalgia patients,1%
same,withdrawal symptoms following discontinuation,fibromyalgia patients,Withdrawal symptoms have been observed
same,liver findings,patients,"cases of increased liver enzymes and reports of severe liver injury, including fulminant hepatitis"
same,dose excreted unchanged in urine,Human pharmacokinetics; human,55%
same,half-life,Human pharmacokinetics; human,6 to 8 h
same,time to steady-state levels,Human pharmacokinetics; human,36 to 48 h
same,Vd,"Human pharmacokinetics; human, iv",~400 L
same,bioavailability,"Human pharmacokinetics; human, po",85 to 90%
same,exposure vs dose,Human pharmacokinetics,increased proportionally
same,dose excreted in urine as this species,"[1]; human, in vivo, po",approximately 55%
same,higher AUC0-∞ than healthy subjects,"[2]; human, 50 mg",31%
same,higher T½ than healthy subjects,"[2]; human, 50 mg",55%
same,T½ vs healthy subjects,[2],similar
same,higher AUC,[3]; both,about 20%
same,higher Cmax,[3]; both,about 20%
same,higher AUC,[3],about 30%
same,higher Cmax,[3],about 30%
same,adverse events after switching from clomipramine,[4],"an increase in adverse events (e.g., euphoria and postural hypotension)"
same,inhibition of neuronal serotonin reuptake,[5],potent inhibitor
same,effect on uptake of dopamine or other neurotransmitters,uptake of dopamine [6],without directly affecting
same,affinity,[7],no significant affinity
same,affinity,α-adrenergic receptors,no significant affinity
same,affinity,β-adrenergic receptors,no significant affinity
same,affinity,[8],no significant affinity
same,affinity,[9],no significant affinity
same,affinity,[10],no significant affinity
same,affinity,opiate receptors,no significant affinity
same,affinity,benzodiazepine receptors,no significant affinity
same,affinity,[11],no significant affinity
same,affinity,Ca^++ channels,no significant affinity
same,affinity,K^+ channels,no significant affinity
same,affinity,Na^+ channels,no significant affinity
same,affinity,Cl^− channels,no significant affinity
same,inhibition of activity,[12],does not inhibit
same,inhibition of activity,[13],does not inhibit
same,inhibition of activity,acetylcholinesterase,does not inhibit
same,incidence of dead fetuses in utero,rats [14],increased the incidence of dead fetuses in utero
same,embryotoxicity or teratogenicity,mice,did not result in embryotoxicity or teratogenicity
same,embryotoxicity or teratogenicity,rabbits,did not result in embryotoxicity or teratogenicity
same,pup body weight and viability on postpartum day 4,"rats [15]; rat, in vivo, po, 5 mg/kg/day",decrease in pup body weight and viability
same,no-effect dose for maternal and offspring toxicity,rats [15]; rats (approximately 0.1 times the MRHD),2.5 mg/kg/day
same,tumor incidence,rats [16],statistically significant increase in the incidence of thyroid C-cell adenomas and combined adenomas and carcinomas in males
same,mutagenicity,[17],not mutagenic
same,mutagenicity,[18],not mutagenic
same,clastogenicity,human lymphocytes,not clastogenic
same,clastogenicity,mouse,not clastogenic
same,keratitis of the eye,primate,did not show this response
same,hepatic findings,rats [19],increased incidences of centrilobular vacuolation of the liver in male rats and eosinophilic foci in male and female rats
same,keratitis of the eye,rats [19],increased incidence of keratitis of the eye
same,keratitis of the eye,rat,did not show this response
same,behavioral signs indicative of abuse potential,[20],did not produce behavioral signs indicative of abuse potential
same,physical dependence,[20],produces physical dependence
same,effect on uptake of dopamine,uptake of dopamine [21],does not affect
CCN(CC)C(=O)[C@@]1(c2ccccc2)C[C@H]1CN [l-milnacipran],dose excreted in urine as this species,[1]; [22],24%
